pIC50: −log10 of the molar value.
Tests used:
[1] = target: T1, Mammalian PARP, isolated from Hela cell nuclear extract (Homo sapiens, UniProt P09874); test: PARP inhibition assay (FlashPlate, 3H-NAD incorporation); assay type: biochemical; conditions: PARP enzyme activity; NAD 5 μM, 30° C., 45 minutes
T1 construct: isolated from Hela cell nuclear extract; endogenous in cells; host or cells: HeLa cell nuclear extract
Description: In order to assess the inhibitory action of compound 1, the following assay was used to determine the IC50 value.
Mammalian PARP, isolated from Hela cell nuclear extract, was incubated with Z-buffer (25 mM Hepes (Sigma); 12.5 mM MgCl2 (Sigma); 50 mM KCl (Sigma); 1 mM DTT (Sigma); 10% Glycerol (Sigma) 0.001% NP-40 (Sigma); pH 7.4) in 96 well FlashPlates (TRADE MARK) (NEN, UK) and varying concentrations of said inhibitors added. The compound was diluted in DMSO and gave final assay concentrations of between 10 and 0.01 μM, with the DMSO being at a final concentration of 1% per well. The total assay volume per well was 40 μl.
After 10 minutes incubation at 30° C. the reactions were initiated by the addition of a 10 μl reaction mixture, containing NAD (5 μM), ^3H-NAD and 30 mer double stranded DNA-oligos. Designated positive and negative reaction wells were done in combination with compound wells (unknowns) in order to calculate % enzyme activities. The plates were then shaken for 2 minutes and incubated at 30° C. for 45 minutes. […]
The plates were transferred to a TopCount NXT (TRADE MARK) (Packard, UK) for scintillation counting. Values recorded are counts per minute (cpm) following a 30 second counting of each well.
The % enzyme activity for the compound is then calculated using the following equation: […]

[2] = target: T2, P-glycoprotein (Homo sapiens, UniProt P08183); test: P-gp substrate activity: Dose Modification Ratio in KBA1 cells with/without Verapamil, SRB assay; assay type: in vitro ADME; conditions: IC50 in absence of Verapamil divided by IC50 in presence of 20 μM Verapamil, 5 days, DMR <1.5 = not a P-gp substrate
T2 construct: Hela cell line known as KBA1, which expressed high P-glycoprotein; endogenous in cells; host or cells: KBA1 cells (HeLa-derived, high P-gp); matched non-expressing line KB31
T2 sequence (P08183 whole entry): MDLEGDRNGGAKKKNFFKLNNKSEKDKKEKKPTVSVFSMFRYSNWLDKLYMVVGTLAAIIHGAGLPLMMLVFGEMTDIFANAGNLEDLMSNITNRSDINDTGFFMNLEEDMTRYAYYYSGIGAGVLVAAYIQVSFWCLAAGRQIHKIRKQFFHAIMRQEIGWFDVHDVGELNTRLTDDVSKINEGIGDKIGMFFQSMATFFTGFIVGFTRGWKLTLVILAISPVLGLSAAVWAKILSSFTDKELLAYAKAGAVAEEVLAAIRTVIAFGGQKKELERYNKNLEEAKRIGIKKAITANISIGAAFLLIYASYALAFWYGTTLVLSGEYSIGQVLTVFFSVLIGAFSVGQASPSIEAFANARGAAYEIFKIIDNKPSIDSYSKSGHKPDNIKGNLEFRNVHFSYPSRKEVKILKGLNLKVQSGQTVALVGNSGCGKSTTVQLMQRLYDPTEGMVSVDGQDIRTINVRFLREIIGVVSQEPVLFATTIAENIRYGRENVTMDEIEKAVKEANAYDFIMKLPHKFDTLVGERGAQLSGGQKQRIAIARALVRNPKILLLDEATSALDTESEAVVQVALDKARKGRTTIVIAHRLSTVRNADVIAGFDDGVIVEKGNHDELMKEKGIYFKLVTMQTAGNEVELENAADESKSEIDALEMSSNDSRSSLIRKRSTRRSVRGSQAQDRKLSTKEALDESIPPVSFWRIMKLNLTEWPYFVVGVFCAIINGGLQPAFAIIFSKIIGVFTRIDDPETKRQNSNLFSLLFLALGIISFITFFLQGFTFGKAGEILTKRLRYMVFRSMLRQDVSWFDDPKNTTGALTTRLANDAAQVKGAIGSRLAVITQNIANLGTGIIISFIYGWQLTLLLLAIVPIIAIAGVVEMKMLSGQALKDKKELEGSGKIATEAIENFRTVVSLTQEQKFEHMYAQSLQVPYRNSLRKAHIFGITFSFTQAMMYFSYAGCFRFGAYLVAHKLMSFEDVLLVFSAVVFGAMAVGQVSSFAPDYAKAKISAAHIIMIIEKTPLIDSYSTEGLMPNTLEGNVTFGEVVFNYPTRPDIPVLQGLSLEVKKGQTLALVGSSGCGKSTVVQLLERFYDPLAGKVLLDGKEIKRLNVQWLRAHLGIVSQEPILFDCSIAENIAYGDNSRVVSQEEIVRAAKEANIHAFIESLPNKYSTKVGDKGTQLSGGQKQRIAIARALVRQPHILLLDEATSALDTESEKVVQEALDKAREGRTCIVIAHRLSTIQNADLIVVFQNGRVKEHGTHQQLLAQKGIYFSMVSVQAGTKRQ
Description: Cells from the Hela cell line known as KBA1, which expressed high P-glycoprotein (ABC1a and ABC1b transporter glycoproteins also known as MDR1a and MDR1b) and the matched non-P-glycoprotein expressing line known as KB31, were seeded onto 96 well tissue culture plates with 80 μl per well of 1.00×10^4 cells/ml=800 cells/well [DMEM, 10% FBS, PSG] and left to adhere for 4 hours. After the incubation period 10 μl per well of 200 μM Verapamil (giving a final conc. of 20 μM) a known inhibitor of P-gp or vehicle media were added to various wells of the cell plates. The 96 well plates were left in the incubator for 1 hour prior to 10 μl of test compound (or the known substrate Etoposide as a reference control) or 10 μl PBS/1% DMSO vehicle (control wells) being added into either Verapamil containing or media control wells. […]
The cell plates were then incubated for 5 days prior to cell growth being assessed using the Sulforhodamine B (SRB) assay as described previously. The P-gp substrate activity for each compound was calculated using the cell growth activity of the tests compounds on the KBA1 cells in the presence or absence (control wells) of Verapamil. The Dose Modification Ratio (DMR) is calculated from the KBA1 where for each test compound a ratio of the IC50 of the compound in the absence of Verapamil is divided by the IC50 of cell growth in the presence of Verapamil. […]

[3] = test system: HeLa cells; test: Potentiation Factor (PF50): MMS growth inhibition, SRB assay; assay type: cell-based; conditions: MMS 0 to 10 μg/ml, ratio of IC50 of control cell growth to IC50 of cell growth + PARP inhibitor
Description: The Potentiation Factor (PF50) for compounds is calculated as a ratio of the IC50 of control cell growth divided by the IC50 of cell growth+PARP inhibitor. Growth inhibition curves for both control and compound treated cells are in the presence of the alkylating agent methyl methanesulfonate (MMS). The test compound was used at a fixed concentration of 30 nM and 200 nM. The concentrations of MMS were over a range from 0 to 10 μg/ml. Cell growth was assessed using the sulforhodamine B (SRB) assay (Skehan, P., et al., (1990) New colorimetric cytotoxicity assay for anticancer-drug screening. J. Natl. Cancer Inst. 82, 1107-1112.). 2,000 HeLa cells were seeded into each well of a flat-bottomed 96-well microtiter plate in a volume of 100 μl and incubated for 6 hours at 37° C. Cells were either replaced with media alone or with media containing PARP inhibitor at a final concentration of 30 nM or 200 nM. Cells were allowed to grow for a further 1 hour before the addition of MMS at a range of concentrations (typically 0, 1, 2, 3, 5, 7 and 10 μg/ml) to either untreated cells or PARP inhibitor treated cells. Cells treated with PARP inhibitor alone were used to assess the growth inhibition by the PARP inhibitor. […] Plates were gently shaken and left at room temperature for 30 minutes before measuring the optical density at 564 nm on a Microquant microtiter plate reader.

T1 sequence (P09874 whole entry): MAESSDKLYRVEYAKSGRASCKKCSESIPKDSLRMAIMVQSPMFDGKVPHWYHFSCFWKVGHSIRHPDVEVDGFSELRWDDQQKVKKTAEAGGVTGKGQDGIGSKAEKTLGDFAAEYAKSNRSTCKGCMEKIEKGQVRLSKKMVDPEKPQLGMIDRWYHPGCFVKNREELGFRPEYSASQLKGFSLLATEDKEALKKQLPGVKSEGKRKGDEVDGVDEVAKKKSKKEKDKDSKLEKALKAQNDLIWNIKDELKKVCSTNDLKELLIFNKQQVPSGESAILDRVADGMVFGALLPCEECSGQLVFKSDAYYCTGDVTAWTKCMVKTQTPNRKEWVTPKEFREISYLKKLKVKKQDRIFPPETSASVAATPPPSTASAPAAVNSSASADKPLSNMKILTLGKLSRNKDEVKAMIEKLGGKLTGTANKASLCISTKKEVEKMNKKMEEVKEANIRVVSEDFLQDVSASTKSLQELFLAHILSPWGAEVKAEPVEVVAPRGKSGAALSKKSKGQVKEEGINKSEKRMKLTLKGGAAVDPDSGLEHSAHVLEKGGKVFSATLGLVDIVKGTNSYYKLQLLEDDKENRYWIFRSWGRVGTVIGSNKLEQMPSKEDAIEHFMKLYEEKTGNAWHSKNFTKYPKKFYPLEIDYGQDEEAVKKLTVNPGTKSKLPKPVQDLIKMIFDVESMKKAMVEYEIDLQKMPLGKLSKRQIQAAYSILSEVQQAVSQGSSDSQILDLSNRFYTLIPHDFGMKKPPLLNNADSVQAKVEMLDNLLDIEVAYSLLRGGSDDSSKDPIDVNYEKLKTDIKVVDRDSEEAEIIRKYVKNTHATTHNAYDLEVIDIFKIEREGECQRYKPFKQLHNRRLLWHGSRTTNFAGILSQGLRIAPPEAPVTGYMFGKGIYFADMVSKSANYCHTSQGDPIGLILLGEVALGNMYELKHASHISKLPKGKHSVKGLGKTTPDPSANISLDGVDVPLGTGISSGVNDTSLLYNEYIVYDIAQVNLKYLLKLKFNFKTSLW

COC1CCN(C(=O)c2cc(Cc3n[nH]c(=O)c4ccccc34)ccc2F)CC1 [Compound 1, 4-(4-Fluoro-3-(4-methoxypiperidine-1-carbonyl)benzyl)phthalazin-1(2H)-one]
pIC50 [1]: ~8.30
Dose Modification Ratio (DMR) [2]: 1.3
PF50 at 30 nM ([3]; test compound fixed at 30 nM): 3.0
PF50 at 200 nM ([3]; test compound fixed at 200 nM): 15
